This is an account of results in patent US20170066759A1, “AROMATIC 5-MEMBERED HETEROCYCLIC DERIVATIVE HAVING TRPV4-INHIBITING ACTIVITY” (Shionogi & Co., Ltd., priority 2012, published 2017).

Bounds are passed on as bounds.

This test deals with T1, human TRPV4 (hTRPV4/CHO cells) (Homo sapiens, UniProt Q9HBA0).
T1 construct: expressed in transfected cells; host or cells: CHO-K1
T1 sequence (Q9HBA0 whole entry): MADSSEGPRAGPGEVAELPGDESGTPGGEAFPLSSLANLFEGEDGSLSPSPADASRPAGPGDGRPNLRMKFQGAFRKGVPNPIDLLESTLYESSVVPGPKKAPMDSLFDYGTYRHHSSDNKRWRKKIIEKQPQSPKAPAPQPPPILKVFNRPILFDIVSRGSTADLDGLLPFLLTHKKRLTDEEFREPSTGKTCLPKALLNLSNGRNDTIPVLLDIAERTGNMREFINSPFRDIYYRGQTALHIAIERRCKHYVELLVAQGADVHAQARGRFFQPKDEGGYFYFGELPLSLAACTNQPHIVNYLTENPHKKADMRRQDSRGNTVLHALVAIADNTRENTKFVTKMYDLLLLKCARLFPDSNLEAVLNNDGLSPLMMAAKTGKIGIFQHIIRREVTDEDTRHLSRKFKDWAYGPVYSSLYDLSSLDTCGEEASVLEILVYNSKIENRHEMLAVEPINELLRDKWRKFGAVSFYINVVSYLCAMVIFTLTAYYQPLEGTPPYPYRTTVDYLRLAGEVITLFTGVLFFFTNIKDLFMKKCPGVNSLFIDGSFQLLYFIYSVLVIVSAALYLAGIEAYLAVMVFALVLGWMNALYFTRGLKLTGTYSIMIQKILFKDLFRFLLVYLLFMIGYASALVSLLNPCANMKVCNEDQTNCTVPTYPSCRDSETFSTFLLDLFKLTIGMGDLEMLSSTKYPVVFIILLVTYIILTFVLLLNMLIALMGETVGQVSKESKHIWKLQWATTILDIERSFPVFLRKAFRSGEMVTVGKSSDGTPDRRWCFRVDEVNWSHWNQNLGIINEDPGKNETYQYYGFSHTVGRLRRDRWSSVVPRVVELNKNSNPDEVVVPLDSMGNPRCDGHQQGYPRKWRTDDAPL
Kind of test: Test Example 1: TRPV4 inhibitory activity (IC50 value), 4α-PDD stimulation, Fluo4 calcium fluorescence (FLIPR TETRA). The format is cell-based. The conditions noted are these: Test Example 1, 4α-PDD stimulation, read-out: Test 1 IC50.
With `O=C(Nc1nc(-c2sc(CO)nc2CO)cs1)C1CN(c2ccccc2C(F)(F)F)C1` [Compound I-327], the half-inhibitory concentration (IC50) (usually the concentration that gives 50% inhibition) was less than 100 nM.
For `Cc1nc(C(=N)N)sc1-c1csc(NC(=O)Cc2ccc(S(=O)(=O)C(F)(F)F)cc2)n1` [Compound I-404] the value was 100 to 1000 nM.
The value for `N#CCc1nc(CO)sc1-c1csc(NC(=O)C2CN(c3ncc(C(F)(F)F)cn3)C2)n1` [Compound I-395] was less than 100 nM; that for `Cc1nc(CO)sc1-c1csc(NC(=O)C2CN(C(=O)OCC(F)(F)F)C2)n1` [Compound I-308] was 100 to 1000 nM.
The value for `Cc1nc([C@H](C)O)sc1-c1csc(NC(=O)Cc2cc(Br)cc(C(=O)N[C@H](c3ccccc3)C(F)(F)F)c2)n1` [Compound I-524] was less than 100 nM; that for `Cc1nc(C)c(-c2csc(NC(=O)Cc3ccc(S(=O)(=O)N(C)c4ccccc4)cc3)n2)s1` [Compound I-159] was less than 100 nM.
Consider `Cc1ncsc1-c1csc(NC(=O)Cc2c(F)cccc2F)n1` [Compound I-540], for which the IC50 lay within 100 to 1000 nM.
The value for `Cc1nc(C)c(-c2csc(NC(=O)[C@H]3CCN(c4ncc(C(F)(F)F)cn4)C3)n2)s1` [Compound I-388] was less than 100 nM.
For `Cc1nc(CO)sc1-c1csc(NC(=O)C2CC(OCc3ccncc3)C2)n1` (stereo not drawn) [Compound I-240] the value was 1000 to 8000 nM.
As to `Cc1nc(C)c(-c2csc(NC(=O)Cn3cc(-c4ccc(Cl)cc4)nn3)n2)s1` [Compound I-423], the IC50 is less than 100 nM.
On to `Cc1nc(C)c(-c2csc(NC(=N)Cc3ccc(Cl)cc3)n2)s1` [II-31], for which the concentration for half-maximal inhibition (IC50) fell in the range of 1000 to 8000 nM.
For `COc1ccc(CN2CC(C(=O)Nc3nc(-c4sc(C)nc4C)cs3)C2)cn1` [Compound I-283], the IC50 fell in the range of 1000 to 8000 nM.
As to `Cc1nc(C)c(-c2csc(NC(=O)Cn3cc(C4CCCCC4)nn3)n2)s1` [Compound I-190], the IC50 is less than 100 nM.
The value for `Cc1nc(C)c(-c2csc(NC(=O)Cn3cc(CNc4ccccc4)nn3)n2)s1` [Compound I-425] was 100 to 1000 nM; that for `Cc1nc(C)c(-c2csc(NC(=O)Cn3cc(Cl)cn3)n2)o1` [Compound I-140] was 1000 to 8000 nM; that for `Cc1nc(CO)sc1-c1csc(NC(=O)C2C[C@H](C(F)(F)F)CN2C(=O)C(F)(F)F)n1` (stereo partly drawn) [Compound I-464] was 1000 to 8000 nM.
For `Cc1nc(C)c(-c2csc(NC(=O)C3CN(c4ccc(C(F)(F)F)nc4)C3)n2)s1` [Compound I-286] the value was less than 100 nM; for `Cc1nc(C)c(-c2csc(NC(=O)C3(CCCO)CN(c4ccc(C(F)(F)F)cc4)C3)n2)s1` (racemic) [Compound I-529], 100 to 1000 nM.
Regarding `Cc1nc(C(=O)N(C)C)sc1-c1csc(NC(=O)Cc2c(F)cccc2F)n1` [Compound I-114], the IC50 was in the range of 1000 to 8000 nM.
The value for `Cc1nc(C)c(-c2csc(NC(=O)C3CCN(S(=O)(=O)c4ccc(F)cc4)CC3)n2)s1` [Compound I-197] was 100 to 1000 nM.
For the compound `O=C(Cc1ccc(S(=O)(=O)C(F)(F)F)cc1)Nc1nc(-c2sc(CO)nc2CN2CCOC2=O)cs1` [Compound I-483], the IC50 fell in the range of 100 to 1000 nM.
The value for `Cc1nc(CO)sc1-c1csc(NC(=O)CC2CC3(CCC3)C2)n1` [Compound I-457] was less than 100 nM; that for `Cc1nc(CO)sc1-c1csc(NC(=O)[C@H]2C[C@@H](C(F)F)C2)n1` [Compound I-355] was 100 to 1000 nM; that for `Cc1nc(C)c(-c2csc(NC(=O)Cc3ccc(S(=O)(=O)C(F)(F)F)cc3)n2)[nH]1` [Compound I-477] was 1000 to 8000 nM.
For `CCCCCCNC(=O)c1sc(NC(=O)Cc2c(F)cccc2F)nc1-c1sc(C)nc1C` [Compound I-87] the value was 1000 to 8000 nM; for `Cc1nc(C)c(-c2nc(NC(=O)Cc3c(F)cccc3F)sc2C(=O)Nc2cccc(Cl)c2)s1` [Compound I-82], 1000 to 8000 nM.
The value for `Cc1nc(C)c(-c2csc(NCC(O)c3ccccc3)n2)s1` (racemic) [II-39] was 100 to 1000 nM.
As to `Cc1nc(C)c(-c2csc(NC(=O)C(O)c3c(F)cccc3F)n2)s1` (stereo not drawn) [Compound I-103], the IC50 is 1000 to 8000 nM.
For `NC(=O)c1nc(CO)c(-c2csc(NC(=O)C3CN(Cc4cccc(C(F)(F)F)c4)C3)n2)s1` [Compound I-324] the value was 100 to 1000 nM; for `Cc1nc(C)c(-c2csc(NC(=O)Cc3cccc(C(=O)NC(C(C)(C)C)C(F)(F)F)n3)n2)s1` (stereo not drawn) [Compound I-507], less than 100 nM; for `Cc1nc(CO)sc1-c1csc(NC(=O)[C@H]2C[C@@H](N(C)CC(F)(F)F)C2)n1` [Compound I-304], 100 to 1000 nM.
For `Cc1nc(C)c(-c2csc(NC(=O)OC3CN(c4ncc(C(F)(F)F)cn4)C3)n2)s1` [Compound I-386] the value was 1000 to 8000 nM; for `Cc1nc(C(F)F)sc1-c1csc(NC(=O)C2CC(OCc3ccccc3)C2)n1` (stereo not drawn) [Compound I-111], 1000 to 8000 nM.
Regarding `Cc1nc(C)c(-c2csc(NC(=O)Cc3ccc(C(F)(F)F)cn3)n2)s1` [Compound I-104], the half-inhibitory concentration (IC50) was less than 100 nM.
The value for `CCN(CC)Cc1nc(CO)sc1-c1csc(NC(=O)Cc2ccc(S(=O)(=O)C(F)(F)F)cc2)n1` [Compound I-236] was 100 to 1000 nM; that for `Cc1nc(C)c(-c2csc(NC(=O)Cn3cc(-c4ccc(Cl)cc4)cn3)n2)s1` [Compound I-147] was less than 100 nM; that for `Cc1nc(C)c(-c2csc(NC(=O)Cc3cc(F)cc(C#N)c3)n2)s1` [Compound I-77] was less than 100 nM.
The value for `Cc1nc(C)c(-c2nc(NC(=O)Cc3c(F)cccc3F)sc2I)s1` [Compound I-65] was 1000 to 8000 nM.
Take `O=C(Cc1ccc(S(=O)(=O)C(F)(F)F)cc1)Nc1nc(-c2sc(CO)nc2CN2CCOCC2)cs1` [Compound I-385]: the IC50 was 100 to 1000 nM.
The value for `Cc1nc(CO)sc1-c1csc(NC(=O)C2CN(Cc3ccc(C(F)(F)F)cc3)C2)n1` [Compound I-208] was less than 100 nM; that for `Cc1nc(C)c(-c2csc(NC(=O)CC3CN(c4ccc(C(F)(F)F)cc4)C3)n2)s1` [Compound I-492] was less than 100 nM; that for `CC(C)OC(=O)NCc1nc(CO)sc1-c1csc(NC(=O)C2CN(c3ccc(C(F)(F)F)cc3)C2)n1` [Compound I-350] was less than 100 nM.
For `Cc1nc(C)c(-c2nc(NC(=O)Cc3c(F)cccc3F)sc2C(=O)Nc2ccccc2)s1` [Compound I-75] the value was 1000 to 8000 nM.
For `Cc1nc(CO)sc1-c1csc(NC(=O)C2CCN(c3ccccc3)C2)n1` (stereo not drawn) [Compound I-185] the value was less than 100 nM.
As to `Cc1nc(C)c(-c2csc(NC(=O)C3CCN(c4ncc(C(F)(F)F)cn4)CC3)n2)s1` [Compound I-379], the IC50 was less than 100 nM.
The value for `Cc1nc(C)c(-c2csc(NC(=O)Cn3cc(-c4ccc(N(C)C)cc4)nn3)n2)s1` [Compound I-427] was 100 to 1000 nM.
For `Cc1nc(C)c(-c2csc(NC(=O)CN3CCN(c4ccccc4)CC3)n2)s1` [Compound I-144] the value was 100 to 1000 nM; for `Cc1nc(C(N)=O)sc1-c1csc(NC(=O)C2CC2(F)F)n1` (stereo not drawn) [Compound I-106], 1000 to 8000 nM; for `Cc1nc(C)c(-c2csc(NC(=O)Cc3cccc(C(=O)Nc4ccccc4F)n3)n2)s1` [Compound I-505], less than 100 nM.
For `Cc1nc(C)c(-c2csc(NC(=O)C3CN(Cc4ccc(C(F)(F)F)nc4)C3)n2)s1` [Compound I-282] the value was 100 to 1000 nM; for `CC(OC(N)=O)c1nc(CO)sc1-c1csc(NC(=O)Cc2ccc(S(=O)(=O)C(F)(F)F)cc2)n1` (single isomer, unassigned) [Compound I-479], 1000 to 8000 nM.
On to `Cc1nc(C)c(-c2csc(NC(=O)[C@H]3CC[C@@H](c4ccccc4)N3C(=O)OC(C)(C)C)n2)s1` [Compound I-211], for which the IC50 fell in the range of 100 to 1000 nM.
For `COc1cc(CC(=O)Nc2nc(-c3sc(C)nc3C)cs2)cc(C(=O)Nc2ccc(Cl)cc2F)c1` [Compound I-526] the value was less than 100 nM; for `CC(=O)Nc1cccc(CC(=O)Nc2nc(-c3sc(C)nc3C)cs2)c1` [Compound I-414], 1000 to 8000 nM; for `Cc1nc(CO)sc1-c1csc(NC(=O)C2CN(c3ccc(C(F)(F)F)cc3)C2)n1` [Compound I-369], less than 100 nM.
For `O=C(Cc1ccc(S(=O)(=O)CC(F)(F)F)cc1)Nc1nc(-c2cccs2)cs1` [II-6] the value was 100 to 1000 nM; for `Cc1nc(CO)sc1-c1csc(NC(=O)C2CN(c3cccnc3Br)C2)n1` [Compound I-311], less than 100 nM; for `Cc1nc(COC(N)=O)c(-c2csc(NC(=O)Cc3ccc(S(=O)(=O)C(F)(F)F)cc3)n2)s1` [Compound I-468], less than 100 nM.
Take `Cc1nc(C)c(-c2csc(NC(=O)[C@@H]3C[C@@H](c4ccccc4)CN3S(=O)(=O)C(C)C)n2)s1` [Compound I-301]: the half-inhibitory concentration (IC50) was less than 100 nM.
Turning to `Cc1nc(C(N)=O)sc1-c1csc(NC(=O)Cn2cc(Cl)cn2)n1` [Compound I-127], the 50% inhibitory concentration (IC50) was in the range of 100 to 1000 nM.
For `NC(=O)OCC(=O)NCc1nc(CO)sc1-c1csc(NC(=O)Cc2ccc(S(=O)(=O)C(F)(F)F)cc2)n1` [Compound I-440] the value was 100 to 1000 nM; for `NC(=O)NCc1nc(CO)sc1-c1csc(NC(=O)C2CN(c3ccc(C(F)(F)F)cc3)C2)n1` [Compound I-345], less than 100 nM; for `Cc1nc(C)c(-c2csc(NC(=O)C3CN(C(=O)c4ccccc4)C3)n2)s1` [Compound I-256], 1000 to 8000 nM.
The value for `Cc1nc(C)c(-c2csc(NC(=O)[C@@H]3CCN(c4ncc(C(F)(F)F)cn4)C3)n2)s1` [Compound I-394] was less than 100 nM; that for `Cc1nc(C)c(-c2csc(NC(=O)C3Cc4cc(S(=O)(=O)N(C)C)c(Cl)c(Cl)c4O3)n2)s1` (stereo not drawn) [Compound I-196] was less than 100 nM; that for `Cc1nc(C)c(-c2csc(NC(=O)CN3CCC(c4ccccc4)CC3)n2)s1` [Compound I-152] was 100 to 1000 nM.
`CCOC(=O)c1nc(C)c(-c2csc(NC(=O)Cc3c(F)cccc3F)n2)s1` [Compound I-94]: the IC50 was 100 to 1000 nM.
The value for `Cc1nc(C)c(-c2nc(NC(=O)Cc3c(F)cccc3F)sc2/C=C\c2ccccc2)s1` [Compound I-73] was 1000 to 8000 nM; that for `Cc1nc(C)c(-c2csc(NC(=O)C3(CO)CN(c4ccc(C(F)(F)F)cc4)C3)n2)s1` (racemic) [Compound I-532] was less than 100 nM.
